Tests used:
plants = conditions: in vivo; cited from earlier work
[1] = tested on: transgenic cotton plants containing the SAD2 gene (Coker 312); experiment: Greenhouse spray of PCR-positive SAD2 transformed cotton plants with 2,4-D amine; assay type: in vivo; conditions: of 95 plants; 1 lb/acre acid equivalents (twice normal field rate); sprayed at squaring stage or later
From the text: The two binary vectors containing the SAD2 gene, pPZP211-PNPT-311-SAD2 and pPZP211-PNPT-512-SAD2, were individually introduced into the EHA 105 strain of Agrobacterium tumefaciens (Hood et al., Transgenic Research, 2:208-218 (1993)) by direct transformation as described by Walker-Peach and Velten, in Plant Molecular Biology Manual, section B1:1-19 (Gelvin, Shilperoort and Verma, eds., Kluwer Academic Publishers, Dordrecht, The Netherlands, 1994)). The constructs were subsequently introduced by Agrobacterium transfection into cotyledon explants from the cotton variety Coker 312 (Coker Seed Inc.). This was achieved by isolating sterile cotyledon tissue (derived from seedlings grown in culture from surface-sterilized seed as described by Trolinder and Gooden, Plant Cell Reports, 6:231-234 (1987)), generating explants (by use of a sterile hole punch), and submerging the explants in a 48-hour-old culture of EHA 105, containing the appropriate construct, grown at 28° C. […]
A total of 111 kanamycin-resistant cotton seedlings were generated (44 were generated in the pPZP211-PNPT-311-SAD2 transformations, and 67 in the pPZP211-PNPT-512-SAD2 transformations). Each plant was analyzed for the presence of the SAD synthetic coding sequence and the NPTII coding sequence by PCR to ensure the integrity of the inserted DNA. […]

[2] = tested on: SAD transgenic cotton plants; experiment: Spray of seedlings from fertile SAD transgenic cotton lines, visual damage evaluation; assay type: in vivo; conditions: 1/2 lb/acre acid equivalents at 24 days, evaluated after 10-14 days
From the text: (§1) To verify that the inserted synthetic SAD genes were inheritable and to gain an indication of the number of gene insertions, seeds from the seven fertile SAD transgenic cotton plants were planted into hydroponic rock wool slabs (Hummert, St. Louis, Mo.) that had been saturated with Peters Professional water-soluble fertilizer (5-11-26 HYDRO-SOL, supplemented with calcium nitrate and magnesium sulfate to provide a complete nutrient compliment; Hummert, St. Louis, Mo.). The hydroponic rock wool slabs were placed on benches in a greenhouse, and nutrients were maintained at optimal levels using a non-recycling hydroponic watering system. Plants were grown under greenhouse conditions (28° C.±5° C. air temperature) for 24 days. At this point, the plants were removed to a spray hood, sprayed with 2,4-D amine at the normal field rate of 1/2 lb/acre acid equivalents, maintained in the hood for 24 hours to allow the 2,4-D to volatilize, and then placed back in the greenhouse.
(§2) The negative control of Coker 312 that had been regenerated from tissue culture did show some signs of resistance, so these ratios are not to be considered as definitive measures of Mendelian inheritance of the SAD gene.

[3] = tested on: transgenic 2,4-D resistant cotton containing the naturally-occurring tfdA gene construct; experiment: Spray of 2,4-D res control seedlings, visual damage evaluation; assay type: in vivo; conditions: 55 plants, 1/2 lb/acre acid equivalents at 24 days, evaluated after 10-14 days
From the text: as §1, §2

[4] = tested on: Coker 312 (not transgenic) regenerated from somatic embryos; experiment: Spray of 2,4-D sens control seedlings, visual damage evaluation; assay type: in vivo, cotton; conditions: 45 plants, 1/2 lb/acre acid equivalents at 24 days, evaluated after 10-14 days
From the text: as §1, §2

[5] = tested on: SAD transgenic cotton plants; experiment: Respray of undamaged SAD plants with 2,4-D amine; assay type: in vivo; conditions: all 35 plants (5 from each of 7 SAD lines); resprayed at 1/2 lb/acre acid equivalents 14 days after first evaluation
Experimental: (§3) Each plant tested positive for the SAD construct by PCR. These plants were grown for a further 14 days and then resprayed with 2,4-D amine at the normal field rate of 1/2 lb/acre acid equivalents. […] The 35 plants were grown to maturity, and seeds were collected.

[6] = tested on: negative controls (cotton); experiment: Respray event, negative controls; assay type: in vivo; conditions: all negative controls; 1/2 lb/acre acid equivalents
Experimental: as §3

## Oc1ccc(Cl)cc1Cl [DCP, 2,4-dichlorophenol]
plants
  toxicity to plants relative to 2,4-D: much less toxic to plants than 2,4-D

## CNC.O=C(O)COc1ccc(Cl)cc1Cl [2,4-D amine]
[1]
  plants that survived treatment with little or no herbicide damage: 22
[2]; line 311-22-1-4, 43 plants
  No Damage (number of plants): 16
  Severe damage (number of plants): 11
  Some symptoms (number of plants): 16
[2]; line 311-22-1-5, 47 plants
  No Damage (number of plants): 6
  Severe damage (number of plants): 23
  Some symptoms (number of plants): 18
[2]; line 311-22-1-8, 56 plants
  No Damage (number of plants): 14
  Severe damage (number of plants): 14
  Some symptoms (number of plants): 28
[2]; line 512-21-1-5, 56 plants
  No Damage (number of plants): 8
  Severe damage (number of plants): 14
  Some symptoms (number of plants): 34
[2]; line 512-21-4-3, 30 plants
  No Damage (number of plants): 7
  Severe damage (number of plants): 3
  Some symptoms (number of plants): 20
[2]; line 512-21-4-5, 41 plants
  No Damage (number of plants): 5
  Severe damage (number of plants): 12
  Some symptoms (number of plants): 24
[2]; line 512-24-4-4, 63 plants
  No Damage (number of plants): 7
  Severe damage (number of plants): 35
  Some symptoms (number of plants): 21
[3]
  No Damage (number of plants): 7
  Severe damage (number of plants): 15
  Some symptoms (number of plants): 33
[4]
  No Damage (number of plants): 0
  Severe damage (number of plants): 25
  Some symptoms (number of plants): 20
[5]
  damage following respray: no damage
[6]
  survival following respray: did not survive

From patent US20030154507A1, “Synthetic herbicide resistance gene” (priority 2001, published 2003)
